Results on two compounds are retold here after patent US20080132577A1, “Use of agomelatine in obtaining medicaments intended for the treatment of smith-magenis syndrome” (LES LABORATOIRES SERVIER, priority 2006, published 2008).

Data set [1] deals with Smith-Magenis syndrome patients. The following applies: evening exogenous melatonin with morning beta-adrenergic antagonists; cited from earlier work.
Data set [2] concerns children with Smith-Magenis syndrome. Briefly: Exploratory phase II clinical study in children with Smith-Magenis syndrome (actigraphy, Achenbach questionnaire). In kind it is in vivo, human. The note with it: agomelatine 1-5 mg/kg co-administered with acebutolol 10 mg/kg. On the procedure: An exploratory phase II study was carried out in children with Smith-Magenis syndrome. Agomelatine 1-5 mg/kg was co-administered with acebutolol 10 mg/kg, a […]. The main analysis criteria were actigraphy parameters recorded over five periods of 30 consecutive days, after 30 days of treatment, and 3, 5 and 15 months of treatment, and also the Achenbach questionnaire, allowing the behaviour disorders to be assessed.
These major effects were carried over to the families, who, following the highly positive consequences of the treatment on family life, requested continuation of the treatment on a compassionate basis.

For another data set, the system named is patients. Briefly: Clinical trials of agomelatine: acceptability, tolerability and drug interactions. The format is in vivo, human. The text has this:
In fact, agomelatine makes it possible to act simultaneously on the behaviour disorders and on the resynchronisation of disturbed circadian rhythms.

Where [3] appears, read: actigraphy, up to 15 months of treatment.

As to `COc1ccc2[nH]cc(CCNC(C)=O)c2c1` [melatonin], the “activity in respect of the behaviour disorders” value in data set [1] is given as “no activity”.
Turning to `COc1ccc2cccc(CCNC(C)=O)c2c1` [agomelatine, N-[2-(7-methoxy-1-naphthyl)ethyl]acetamide], in data set [2], the “behaviour (behaviour disorders, Achenbach questionnaire)” value was “Real progress in relation to behaviour”; the “clinical improvement found by a specialist” value was “Major clinical improvement”; the sleep quality recorded entry is “a calm, deep sleep, less-broken nights and less-early waking in the morning”. For the same compound, in data set [2] (setting [3]), the “duration of daytime naps” value was “reduction in the duration of daytime naps”, the “duration of night waking” value is given as “reduction” and the “frequency of night waking” value was “reduction”. The drug interactions entry in the data set on patients (human, in vivo) is reported as “no drug interactions”. In addition, the “clinical and biological tolerability” value in the data set on patients (more than 4000 patients exposed in clinical trials) was “excellent clinical and biological tolerability”.
